The record followed here is patent US9382254B2, “Compounds and pharmaceutical compositions thereof for the treatment of cystic fibrosis” (Galapagos NV, priority 2013, dated 2016).

Molecules are shown by their SMILES.

This assay deals with T1, CFTR ΔF508 mutant (Homo sapiens, UniProt P13569, DEL508-508).
T1 construct: expressed in transfected cells; host or cells: CFBE41o- (adenoviral transduction)
Kind of assay: YFP-halide influx assay for the CFTR-ΔF508 mutation, gluconate buffer. The assay is classed as cell-based. To be noted: CFBE41o- cells, forskolin 10.67 μM. The source says: The YFP halide influx assay measures the functionality of the cystic fibrosis Transmembrane Conductance regulator (CFTR) channels in the cystic fibrosis bronchial epithelium cell line CFBE41o-. The assay is used to evaluate the capacity of compounds to increase the open probability of existing CFTR channels in the membrane. It makes use of the observation that the yellow fluorescent protein (YFP) variant YFP H148Q, I152L has its fluorescence substantially quenched by halide ions like Cl^− and I^−. (Galietta, Haggie, & Verkman, 2001) (Nagai, et al., 2002)
For this purpose, CFBE41o-cells are seeded in 96 well plates (6000 CFBE cells/well). One day after seeding, the CFBE cells are transduced with adenoviral vectors that direct the expression of the CFTR ΔF508 mutant and of the YFP reporter. Cells are incubated at 27° C., 5% CO2 for 24 hours so as to allow for the proper folding and migration to the membrane of the CFTR channel or treated with a CFTR modulator during 24 hours at 37° C.
The I^−-induced quenching of fluorescence is recorded immediately after injection of I^− for 7 seconds. The capacity of a compound to increase the channel opening is directly correlated with the decrease in fluorescence, and is expressed as (1-(fluorescence after 7 seconds (F)/fluorescence before injection (F0))) and an EC50 can be derived from a (1-F/F0) vs compound concentration plot.

T1 sequence (P13569 with tags, fused parts or gaps DEL508-508): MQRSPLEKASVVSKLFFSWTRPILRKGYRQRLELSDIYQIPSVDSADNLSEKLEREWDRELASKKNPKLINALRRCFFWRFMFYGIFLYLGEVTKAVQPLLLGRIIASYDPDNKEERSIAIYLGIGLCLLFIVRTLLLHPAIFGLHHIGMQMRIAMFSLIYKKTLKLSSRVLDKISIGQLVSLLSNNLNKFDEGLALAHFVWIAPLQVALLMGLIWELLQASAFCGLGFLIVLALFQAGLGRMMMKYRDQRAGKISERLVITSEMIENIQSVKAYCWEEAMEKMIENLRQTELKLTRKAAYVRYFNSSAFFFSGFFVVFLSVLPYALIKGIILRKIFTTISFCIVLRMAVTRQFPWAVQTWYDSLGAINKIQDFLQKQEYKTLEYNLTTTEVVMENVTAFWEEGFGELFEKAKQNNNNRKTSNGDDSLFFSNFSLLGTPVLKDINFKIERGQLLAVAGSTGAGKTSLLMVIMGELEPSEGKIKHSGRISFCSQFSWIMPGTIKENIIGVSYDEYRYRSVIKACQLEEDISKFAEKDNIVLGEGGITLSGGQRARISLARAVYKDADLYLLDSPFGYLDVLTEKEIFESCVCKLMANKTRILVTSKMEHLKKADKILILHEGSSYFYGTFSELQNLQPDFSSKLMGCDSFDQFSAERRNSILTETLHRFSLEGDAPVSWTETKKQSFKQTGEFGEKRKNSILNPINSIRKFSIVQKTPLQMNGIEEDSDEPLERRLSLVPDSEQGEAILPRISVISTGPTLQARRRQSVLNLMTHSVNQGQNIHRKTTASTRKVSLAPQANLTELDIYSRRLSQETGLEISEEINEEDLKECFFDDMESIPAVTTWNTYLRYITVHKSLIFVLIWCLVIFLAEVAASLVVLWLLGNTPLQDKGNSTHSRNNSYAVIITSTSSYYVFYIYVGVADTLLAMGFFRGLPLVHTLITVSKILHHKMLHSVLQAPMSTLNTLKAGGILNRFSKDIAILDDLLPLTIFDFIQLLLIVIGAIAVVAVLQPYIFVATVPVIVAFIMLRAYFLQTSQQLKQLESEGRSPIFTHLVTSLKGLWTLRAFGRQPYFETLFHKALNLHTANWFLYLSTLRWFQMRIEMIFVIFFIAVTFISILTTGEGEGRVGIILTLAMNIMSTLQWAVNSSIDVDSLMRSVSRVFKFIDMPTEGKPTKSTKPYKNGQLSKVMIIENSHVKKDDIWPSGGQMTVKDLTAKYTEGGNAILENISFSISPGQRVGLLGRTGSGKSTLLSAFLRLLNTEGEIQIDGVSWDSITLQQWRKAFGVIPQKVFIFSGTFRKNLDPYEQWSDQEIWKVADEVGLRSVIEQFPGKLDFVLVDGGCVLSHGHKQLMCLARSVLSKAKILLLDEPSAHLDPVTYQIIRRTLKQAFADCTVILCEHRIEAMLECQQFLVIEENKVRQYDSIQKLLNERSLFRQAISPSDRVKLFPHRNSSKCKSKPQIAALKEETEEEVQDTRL

In general, EC50 refers to the concentration at which the effect is half-maximal. Higher therefore signals a less potent agent. With `COc1cccc(C(=O)Nc2sc(S(=O)(=O)N3CCCCC3)cc2C(N)=O)c1` [Compound 18, 2-(3-methoxybenzamido)-5-(piperidin-1-ylsulfonyl)thiophene-3-carboxamide], the midpoint of the response, the EC50, lay at 472 nM.
In turn, `NC(=O)c1cc(S(=O)(=O)N2CCCCC2)sc1NC(=O)c1ccccc1F` [Compound 19, 2-(2-fluorobenzamido)-5-(piperidin-1-ylsulfonyl)thiophene-3-carboxamide] registered an EC50 of 118 nM.
`NC(=O)c1cc(S(=O)(=O)N2CCCCC2)sc1NC(=O)c1ccc(Cl)cc1` [Compound 20, 2-(4-chlorobenzamido)-5-(piperidin-1-ylsulfonyl)thiophene-3-carboxamide] yielded a concentration giving a half-maximal response (EC50) of 392 nM.
As for `COc1ccc(C(=O)Nc2sc(S(=O)(=O)N3CCCCC3)cc2C(N)=O)cc1` [Compound 21, 2-(4-methoxybenzamido)-5-(piperidin-1-ylsulfonyl)thiophene-3-carboxamide], the EC50 is 484 nM.
To `N#Cc1ccc(C(=O)Nc2sc(S(=O)(=O)N3CCCCC3)cc2C(N)=O)cc1` [Compound 22, 2-(4-cyanobenzamido)-5-(piperidin-1-ylsulfonyl)thiophene-3-carboxamide] belongs 317 nM.
As for `CC(C)(C)c1ccc(C(=O)Nc2sc(S(=O)(=O)N3CCCCC3)cc2C(N)=O)s1` [Compound 23, 5-tert-butyl-N-(3-carbamoyl-5-(piperidin-1-ylsulfonyl)thiophen-2-yl) thiophene-2-carboxamide], the EC50 is 642 nM.
Compound `COc1ccccc1C(=O)Nc1sc(S(=O)(=O)N2CCCCC2)cc1C(N)=O` [Compound 24, 2-(2-methoxybenzamido)-5-(piperidin-1-ylsulfonyl)thiophene-3-carboxamide] came in with an EC50 of 772 nM.
As for `N#Cc1ccccc1C(=O)Nc1sc(S(=O)(=O)N2CCCCC2)cc1C(N)=O` [Compound 25, 2-(2-cyanobenzamido)-5-(piperidin-1-ylsulfonyl)thiophene-3-carboxamide], the EC50 worked out at 945 nM.
`NC(=O)c1cc(S(=O)(=O)N2CCCCC2)sc1NC(=O)c1ccc(F)cc1` [Compound 26, 2-(4-fluorobenzamido)-5-(piperidin-1-ylsulfonyl)thiophene-3-carboxamide] yielded an EC50 of 289 nM.
To `CC(C)(C)c1ccc(C(=O)Nc2sc(S(=O)(=O)N3CCCCC3)cc2C(N)=O)cc1` [Compound 27, 2-(4-tert-butylbenzamido)-5-(piperidin-1-ylsulfonyl)thiophene-3-carboxamide] belongs 290 nM.
To `CCCC(=O)Nc1sc(S(=O)(=O)N2CCCCC2)cc1C(N)=O` [Compound 28, 2-butyramido-5-(piperidin-1-ylsulfonyl)thiophene-3-carboxamide] belongs 624 nM; to `CC(C)(C)C(=O)Nc1sc(S(=O)(=O)N2CCCCC2)cc1C(N)=O` [Compound 29, 5-(piperidin-1-ylsulfonyl)-2-pivalamidothiophene-3-carboxamide], 272 nM; to `Cn1ccc(C(=O)Nc2sc(S(=O)(=O)N3CCCCC3)cc2C(N)=O)n1` [Compound 30, N-(3-carbamoyl-5-(piperidin-1-ylsulfonyl)thiophen-2-yl)-1-methyl-1H-pyrazole-3-carboxamide], 910 nM.
For the compound `CC1(C(=O)Nc2sc(S(=O)(=O)N3CCCCC3)cc2C(N)=O)CC1` [Compound 31, 2-(1-methylcyclopropanecarboxamido)-5-(piperidin-1-ylsulfonyl) thiophene-3-carboxamide], the EC50 was found to be 184 nM.
`NC(=O)c1cc(S(=O)(=O)N2CCCCC2)sc1NC(=O)Cc1ccc(F)cc1` [Compound 32, 2-(2-(4-fluorophenyl)acetamido)-5-(piperidin-1-ylsulfonyl)thiophene-3-carboxamide] had an EC50 of 1500 nM.
The compound `Cc1nnc(C(=O)Nc2sc(S(=O)(=O)N3CCCCC3)cc2C(N)=O)o1` [Compound 33, N-(3-carbamoyl-5-(piperidin-1-ylsulfonyl)thiophen-2-yl)-5-methyl-1,3,4-oxadiazole-2-carboxamide] displayed an EC50 of 9840 nM.
Compound `NC(=O)c1cc(S(=O)(=O)N2CCCCC2)sc1NC(=O)c1cnccn1` [Compound 34, N-(3-carbamoyl-5-(piperidin-1-ylsulfonyl)thiophen-2-yl)pyrazine-2-carboxamide] had an EC50 of 290 nM.
In the case of `NC(=O)c1cc(S(=O)(=O)N2CCCCC2)sc1NC(=O)c1c[nH]cn1` [Compound 35, N-(3-carbamoyl-5-(piperidin-1-ylsulfonyl)thiophen-2-yl)-1H-imidazole-4-carboxamide], the EC50 was 3280 nM.
Regarding `NC(=O)c1cc(S(=O)(=O)N2CCCCC2)sc1NC(=O)C1CCC(F)(F)CC1` [Compound 37, 2-(4,4-difluorocyclohexanecarboxamide)-5-(piperidin-1-ylsulfonyl) thiophene-3-carboxamide], the EC50 amounted to 293 nM.
For `NC(=O)c1cc(S(=O)(=O)N2CCCCC2)sc1NC(=O)C1(C(F)(F)F)CC1` [Compound 38, 5-(piperidin-1-ylsulfonyl)-2-(1-(trifluoromethyl)cyclopropanecarboxamido) thiophene-3-carboxamide], a half-maximal effect (EC50) was put at 900 nM.
As for `NC(=O)c1cc(S(=O)(=O)N2CCCCC2)sc1NC(=O)c1ccc(F)s1` [Compound 39, N-(3-carbamoyl-5-(piperidin-1-ylsulfonyl)thiophen-2-yl)-5-fluorothiophene-2-carboxamide], the figure is 293 nM; as for `NC(=O)c1cc(S(=O)(=O)N2CCCCC2)sc1NC(=O)CCc1ccccc1` [Compound 40, 2-(3-phenylpropanamido)-5-(piperidin-1-ylsulfonyl) thiophene-3-carboxamide], 574 nM; as for `NC(=O)c1cc(S(=O)(=O)N2CCCCC2)sc1NC(=O)c1cnn2cccnc12` [Compound 41, N-(3-carbamoyl-5-(piperidin-1-ylsulfonyl)thiophen-2-yl)pyrazolo[1,5-a]pyrimidine-3-carboxamide], 9840 nM.
As for `NC(=O)c1cc(S(=O)(=O)N2CCCCC2)sc1NC(=O)C1CC1` [Compound 42, 2-(cyclopropanecarboxamido)-5-(piperidin-1-ylsulfonyl) thiophene-3-carboxamide], the EC50 is 739 nM.
In turn, `CC(C)(C)n1cc(C(=O)Nc2sc(S(=O)(=O)N3CCCCC3)cc2C(N)=O)cn1` [Compound 43, 1-tert-butyl-N-(3-carbamoyl-5-(piperidin-1-ylsulfonyl)thiophen-2-yl)-1H-pyrazole-4-carboxamide] showed an EC50 of 670 nM.
To `NC(=O)c1cc(S(=O)(=O)N2CCCCC2)sc1NC(=O)C1CC(F)(F)C1` [Compound 44, 2-(3,3-difluorocyclobutanecarboxamido)-5-(piperidin-1-ylsulfonyl) thiophene-3-carboxamide] belongs 696 nM; to `CC1(C(=O)Nc2sc(S(=O)(=O)N3CCOCC3)cc2C(N)=O)CC1` [Compound 45, 2-(1-methylcyclopropanecarboxamido)-5-(morpholinosulfonyl) thiophene-3-carboxamide], 1280 nM.
In turn, `NC(=O)c1cc(S(=O)(=O)N2CCOCC2)sc1NC(=O)c1ccccc1F` [Compound 46, 2-(2-fluorobenzamido)-5-(morpholinosulfonyl) thiophene-3-carboxamide] gave an EC50 of 284 nM.
Consider `CC(C)(C)C(=O)Nc1sc(S(=O)(=O)N2CCOCC2)cc1C(N)=O` [Compound 47, 5-(morpholinosulfonyl)-2-pivalamidothiophene-3-carboxamide], for which a half-maximal effect (EC50) was put at 2660 nM.
For `COc1ccccc1C(=O)Nc1sc(S(=O)(=O)N2CCOCC2)cc1C(N)=O` [Compound 48, 2-(2-methoxybenzomido)-5-(morpholinosulfonyl) thiophene-3-carboxamide], the response was half-maximal at 253 nM (EC50).
For the compound `CC(C)(C)c1ccc(C(=O)Nc2sc(S(=O)(=O)N3CCOCC3)cc2C(N)=O)cc1` [Compound 49, 2-(4-tert-butylbenzamido)-5-(morpholinosulfonyl) thiophene-3-carboxamide], it took 842 nM to reach a half-maximal effect (EC50).
For the compound `NC(=O)c1cc(S(=O)(=O)N2CCOCC2)sc1NC(=O)c1cc2ccccc2s1` [Compound 50, N-(3-carbamoyl-5-(morpholinosulfonyl)thiophen-2-yl)benzo[b] thiophene-2-carboxamide], a half-maximal response (EC50) required 391 nM.
As for `CC(C)(C)c1ccc(C(=O)Nc2sc(S(=O)(=O)N3CCOCC3)cc2C(N)=O)s1` [Compound 51, 5-tert-butyl-N-(3-carbamoyl-5-(morpholinosulfonyl)thiophen-2-yl) thiophene-2-carboxamide], the figure is 599 nM.
`NC(=O)c1cc(S(=O)(=O)N2CCCCC2)sc1NC(=O)c1ccccc1C1CC1` [Compound 52, 2-(2-cyclopropylbenzamido)-5-(piperidin-1-ylsulfonyl) thiophene-3-carboxamide] showed an EC50 of 204 nM.
`NC(=O)c1cc(S(=O)(=O)N2CCCCC2)sc1NC(=O)c1cccc(-n2cccn2)c1` [Compound 53, 2-(3-(1H-pyrazol-1-yl)benzamido)-5-(piperidin-1-ylsulfonyl)thiophene-3-carboxamide] displayed an EC50 of 1260 nM.
Compound `NC(=O)c1cc(S(=O)(=O)N2CCCCC2)sc1NC(=O)c1cccc(-c2cc[nH]n2)c1` [Compound 54, 2-(3-(1H-pyrazol-3-yl)benzamido)-5-(piperidin-1-ylsulfonyl)thiophene-3-carboxamide] showed an EC50 of 3160 nM.
